According to ChEMBL document CHEMBL1201862, “PubChem BioAssay data set” (2004):
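Following 48 hours of exposure in 96-well plates, responses at five concentrations were used to interpolate endpoints linearly. GI50 marks 50% less growth.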 The source made the active and inactive calls. No stated cut-off is given here; in the data, active = GI50 up to about 1.1 µM and inactive = higher.

Assays:
Experiment in all cases: NCI anticancer screen, dose series, 48 h
OVCAR-5 = system: OVCAR-5
OVCAR-4 = system: OVCAR-4
SK-OV-3 = system: SK-OV-3
SF-295 = system: SF-295
XF498 = system: XF498
786-0 = system: 786-0
RXF 631 = system: RXF 631
TK-10 = system: TK-10
DMS-273 = system: DMS-273
SN12C = system: SN12C
SNB-78 = system: SNB-78
LXFL 529 = system: LXFL 529
COLO 205 = system: COLO 205
RPMI-8226 = system: RPMI-8226
OVCAR-3 = system: OVCAR-3
A498 = system: A498
KM-20L2 = system: KM-20L2
SK-MEL-28 = system: SK-MEL-28
SF-539 = system: SF-539
RXF 393 = system: RXF 393
UACC-257 = system: UACC-257
HOP-62 = system: HOP-62
SK-MEL-5 = system: SK-MEL-5
SNB-19 = system: SNB-19
ACHN = system: ACHN
MOLT-4 = system: MOLT-4
OVCAR-8 = system: OVCAR-8
LOX IMVI = system: LOX IMVI
NCI-H23 = system: NCI-H23
HOP-18 = system: HOP-18
DMS-114 = system: DMS-114
UO-31 = system: UO-31
A549 = system: A549
KM12 = system: KM12
K562 = system: K562
HCT-15 = system: HCT-15
SK-MEL-2 = system: SK-MEL-2
DLD-1 = system: DLD-1
M19-MEL = system: M19-MEL
CAKI-1 = system: CAKI-1
HT-29 = system: HT-29
SNB-75 = system: SNB-75
U-251 = system: U-251
UACC-62 = system: UACC-62
NCI-H460 = system: NCI-H460
EKVX = system: EKVX
M14 = system: M14
Malme-3M = system: Malme-3M
CCRF-CEM = system: CCRF-CEM
IGROV-1 = system: IGROV-1
SF-268 = system: SF-268
SW-620 = system: SW-620
HCC 2998 = system: HCC 2998
HOP-92 = system: HOP-92
HL-60 = system: HL-60
NCI-H522 = system: NCI-H522
HCT-116 = system: HCT-116
NCI-H226 = system: NCI-H226
SR = system: SR

SMILES: COc1cc(OC)c(C(=O)c2cccs2)cc1N
- GI50 (OVCAR-5): > 100 µM (inactive)
- GI50 (OVCAR-4): > 100 µM (inactive)
- GI50 (SK-OV-3): > 100 µM (inactive)
- GI50 (SF-295): > 100 µM (inactive)
- GI50 (XF498): > 100 µM (inactive)
- GI50 (786-0): > 100 µM (inactive)
- GI50 (RXF 631): > 100 µM (inactive)
- GI50 (TK-10): > 100 µM (inactive)
- GI50 (DMS-273): > 100 µM (inactive)
- GI50 (SN12C): > 100 µM (inactive)
- GI50 (SNB-78): > 100 µM (inactive)
- GI50 (LXFL 529): > 100 µM (inactive)
- GI50 (COLO 205): > 100 µM (inactive)
- GI50 (RPMI-8226): > 100 µM (inactive)
- GI50 (OVCAR-3): > 100 µM (inactive)
- GI50 (A498): > 100 µM (inactive)
- GI50 (KM-20L2): > 100 µM (inactive)
- GI50 (SK-MEL-28): > 100 µM (inactive)
- GI50 (SF-539): > 100 µM (inactive)
- GI50 (RXF 393): > 100 µM (inactive)
- GI50 (UACC-257): > 100 µM (inactive)
- GI50 (HOP-62): > 100 µM (inactive)
- GI50 (SK-MEL-5): > 100 µM (inactive)
- GI50 (SNB-19): > 100 µM (inactive)
- GI50 (ACHN): > 100 µM (inactive)
- GI50 (MOLT-4): > 100 µM (inactive)
- GI50 (OVCAR-8): > 100 µM (inactive)
- GI50 (LOX IMVI): > 100 µM (inactive)
- GI50 (NCI-H23): > 100 µM (inactive)
- GI50 (HOP-18): 23.7 µM (inactive)
- GI50 (DMS-114): > 100 µM (inactive)
- GI50 (UO-31): 96.6 µM (inactive)
- GI50 (A549): > 100 µM (inactive)
- GI50 (KM12): > 100 µM (inactive)
- GI50 (K562): > 100 µM (inactive)
- GI50 (HCT-15): > 100 µM
- GI50 (SK-MEL-2): > 100 µM (inactive)
- GI50 (DLD-1): > 100 µM (inactive)
- GI50 (M19-MEL): > 100 µM (inactive)
- GI50 (CAKI-1): > 100 µM (inactive)
- GI50 (HT-29): > 100 µM (inactive)
- GI50 (SNB-75): > 100 µM (inactive)
- GI50 (U-251): > 100 µM (inactive)
- GI50 (UACC-62): > 100 µM (inactive)
- GI50 (NCI-H460): > 100 µM (inactive)
- GI50 (EKVX): > 100 µM (inactive)
- GI50 (M14): > 100 µM (inactive)
- GI50 (Malme-3M): > 100 µM (inactive)
- GI50 (CCRF-CEM): > 100 µM (inactive)
- GI50 (IGROV-1): > 100 µM (inactive)
- GI50 (SF-268): > 100 µM (inactive)
- GI50 (SW-620): > 100 µM (inactive)
- GI50 (HCC 2998): > 100 µM (inactive)

SMILES: COc1ccc(C(=O)Nc2ccc(S(=O)(=O)NCC(=O)O)cc2)cc1
- GI50 (OVCAR-5): > 100 µM (inactive)
- GI50 (OVCAR-4): > 100 µM (inactive)
- GI50 (SK-OV-3): > 100 µM (inactive)
- GI50 (SF-295): > 100 µM (inactive)
- GI50 (XF498): > 100 µM (inactive)
- GI50 (786-0): > 100 µM (inactive)
- GI50 (RXF 631): > 100 µM (inactive)
- GI50 (TK-10): > 100 µM (inactive)
- GI50 (DMS-273): > 100 µM (inactive)
- GI50 (HOP-92): > 100 µM (inactive)
- GI50 (SN12C): > 100 µM (inactive)
- GI50 (LXFL 529): > 100 µM (inactive)
- GI50 (COLO 205): > 100 µM (inactive)
- GI50 (RPMI-8226): > 100 µM (inactive)
- GI50 (OVCAR-3): > 100 µM (inactive)
- GI50 (A498): > 100 µM (inactive)
- GI50 (KM-20L2): > 100 µM (inactive)
- GI50 (SK-MEL-28): > 100 µM (inactive)
- GI50 (SF-539): > 100 µM (inactive)
- GI50 (RXF 393): > 100 µM (inactive)
- GI50 (UACC-257): > 100 µM (inactive)
- GI50 (SK-MEL-5): > 100 µM (inactive)
- GI50 (SNB-19): > 100 µM (inactive)
- GI50 (ACHN): > 100 µM (inactive)
- GI50 (MOLT-4): > 100 µM (inactive)
- GI50 (OVCAR-8): > 100 µM (inactive)
- GI50 (LOX IMVI): > 100 µM (inactive)
- GI50 (NCI-H23): > 100 µM (inactive)
- GI50 (HOP-18): > 100 µM (inactive)
- GI50 (UO-31): > 100 µM (inactive)
- GI50 (A549): > 100 µM (inactive)
- GI50 (HL-60): > 100 µM (inactive)
- GI50 (KM12): > 100 µM (inactive)
- GI50 (K562): > 100 µM (inactive)
- GI50 (HCT-15): > 100 µM
- GI50 (SK-MEL-2): > 100 µM (inactive)
- GI50 (NCI-H522): > 100 µM (inactive)
- GI50 (DLD-1): > 100 µM (inactive)
- GI50 (M19-MEL): > 100 µM (inactive)
- GI50 (CAKI-1): > 100 µM (inactive)
- GI50 (HT-29): > 100 µM (inactive)
- GI50 (SNB-75): > 100 µM (inactive)
- GI50 (U-251): > 100 µM (inactive)
- GI50 (UACC-62): > 100 µM (inactive)
- GI50 (NCI-H460): > 100 µM (inactive)
- GI50 (EKVX): > 100 µM (inactive)
- GI50 (M14): > 100 µM (inactive)
- GI50 (Malme-3M): > 100 µM (inactive)
- GI50 (CCRF-CEM): > 100 µM (inactive)
- GI50 (IGROV-1): > 100 µM (inactive)
- GI50 (SF-268): > 100 µM (inactive)
- GI50 (SW-620): > 100 µM (inactive)
- GI50 (HCC 2998): > 100 µM (inactive)

SMILES: N#CC1(C=O)c2ccccc2C=CN1C(=O)c1ccccc1 (configuration not stated)
- GI50 (OVCAR-4): 34.9 µM (inactive)
- GI50 (XF498): 22 µM (inactive)
- GI50 (786-0): 31.7 µM (inactive)
- GI50 (RXF 631): 56.5 µM (inactive)
- GI50 (TK-10): 63.5 µM (inactive)
- GI50 (DMS-273): 49.2 µM (inactive)
- GI50 (HOP-92): 23.4 µM (inactive)
- GI50 (SN12C): 50 µM (inactive)
- GI50 (SNB-78): 78.7 µM (inactive)
- GI50 (LXFL 529): 33.3 µM (inactive)
- GI50 (COLO 205): 37.3 µM (inactive)
- GI50 (OVCAR-3): 16.7 µM (inactive)
- GI50 (HCT-116): 38.6 µM (inactive)
- GI50 (A498): 26.4 µM (inactive)
- GI50 (KM-20L2): 43.6 µM (inactive)
- GI50 (SK-MEL-28): > 100 µM (inactive)
- GI50 (NCI-H226): 61.9 µM (inactive)
- GI50 (RXF 393): 20.5 µM (inactive)
- GI50 (UACC-257): 29.8 µM (inactive)
- GI50 (SK-MEL-5): 11.4 µM (inactive)
- GI50 (SNB-19): 58.3 µM (inactive)
- GI50 (ACHN): 27.4 µM (inactive)
- GI50 (MOLT-4): 18.7 µM (inactive)
- GI50 (OVCAR-8): 41.8 µM (inactive)
- GI50 (NCI-H23): 41.7 µM (inactive)
- GI50 (HOP-18): 41.4 µM (inactive)
- GI50 (DMS-114): 19.8 µM (inactive)
- GI50 (UO-31): 33.3 µM (inactive)
- GI50 (A549): 76.2 µM (inactive)
- GI50 (HL-60): 17.7 µM (inactive)
- GI50 (KM12): 19.2 µM (inactive)
- GI50 (K562): 29.6 µM (inactive)
- GI50 (HCT-15): 40.7 µM
- GI50 (SR): 18.5 µM (inactive)
- GI50 (SK-MEL-2): 61.8 µM (inactive)
- GI50 (NCI-H522): 27.9 µM (inactive)
- GI50 (M19-MEL): 33.7 µM (inactive)
- GI50 (CAKI-1): 20.5 µM (inactive)
- GI50 (HT-29): 38.2 µM (inactive)
- GI50 (SNB-75): 15.1 µM (inactive)
- GI50 (U-251): 29.6 µM (inactive)
- GI50 (UACC-62): 52.5 µM (inactive)
- GI50 (NCI-H460): 73.6 µM (inactive)
- GI50 (EKVX): 29.7 µM (inactive)
- GI50 (M14): 26.8 µM (inactive)
- GI50 (Malme-3M): 30.6 µM (inactive)
- GI50 (CCRF-CEM): 17.6 µM (inactive)
- GI50 (IGROV-1): 26.9 µM (inactive)
- GI50 (SF-268): 70.3 µM (inactive)
- GI50 (SW-620): 4.3 µM (inactive)
- GI50 (HCC 2998): 35.8 µM (inactive)
